Where “and” joins values, the source holds several entries; their conditions need not be identical. Identical values can stand only once.
Test: Human HepG2 cell viability assay in 384 well format
Type: toxicity, cell-based
Parameters: dose 125 nL, time 70.5 hour; cytotoxicity at 70.5 h: concentration not given beside the values
Details: HepG2 cells, read-out: Inhibition

In order of rising cytotoxicity at 70.5 h:
1. CC(C)=CCN1C(=O)[C@H]2CC[C@@H]1CN(c1ncccc1F)C2  -22.9%
2. COc1cccc(Cn2cc(C3=CCN(CC(=O)N(C)C)CC3)cn2)c1  -16.4%
3. CSCC(CCO)NC(=O)Nc1ccc(C)cc1C (stereo not drawn)  -14.5%
4. Cc1nc(NS(=O)(=O)c2cc(C)c(Br)cc2C)no1  -14.1%
5. Cc1ccc(NC2CCN(C(=O)c3cccc(F)c3F)CC2)nn1  -13.7%
6. Cn1ncc2c(=O)[nH]c(CN3CCCC3Cc3ccccc3)nc21 (stereo not drawn)  -13.7%
7. CC(=O)Nc1nc(CN(C)C2CCCN(c3cccnn3)C2)cs1 (stereo not drawn)  -13.5%
8. Cc1nc(C)n(CC2CN(Cc3nc4ccccc4n3C)CCO2)n1 (stereo not drawn)  -13.3%
9. COc1ncccc1NC(=O)N(Cc1ccc(C(N)=O)cc1)C1CC1  -12.7%
10. CC(=O)Nc1ncc(S(=O)(=O)Nc2cccc(C)c2)s1  -12.5%
11. O=C(CCn1ccc2cc(Br)ccc21)/N=c1\[nH]nc(C2CCCO2)s1 (stereo not drawn)  -12%
12. Cc1noc(C)c1CN1C[C@@H]2C[C@H](C(=O)NCC3CC3)N(C)[C@@H]2C1  -11.9%
13. Cc1cnc(CN2CCC(N(C)Cc3nnc(C4CC4)n3C)C2)cn1 (stereo not drawn)  -11%
14. Cc1ccc(-c2nnc(SCC(=O)O)n2-c2ccccc2)cc1  -10.9%
15. N#Cc1c[nH]nc1NCc1ccc2c(c1)OCO2  -10.8%
16. CCN(Cc1ccc(Cl)c(Cl)c1)C(=O)CCn1cncn1  -10.7%
17. O=C1CCN(C(=O)CCc2cc(Br)cs2)CCN1  -10.5%
18. O=C(NCc1ccco1)c1nn(C2CCS(=O)(=O)C2)c2c1CCCC2 (stereo not drawn)  -10.4%
19. CCCN1CCCn2c(nc(CNC(=O)N3CCCC3)cc2=O)C1  -9.21%
20. Cn1ccnc1CNC(=O)CCc1cccc(F)c1  -9.01%
21. CN1CCCN(c2cnn(Cc3ccc(C(C)(C)C)cc3)c(=O)c2)CC1  -8.93%
22. CCc1ccc2nc(C)cc(C(=O)N3C[C@H]4CCC[C@@]4(CO)C3)c2c1  -8.92%
23. Nc1nnnn1NCc1ccccc1C(F)(F)F  -8.4%
24. Cc1ccc(CN(Cc2ccccn2)C2CC(C)(C)NC(C)(C)C2)s1  -7.96%
25. COc1ccccc1[C@@H]1CN(CC(=O)N2CCCCC2)C[C@H]1C(=O)O  -7.8%
26. COc1ccccc1C(C)(C)NC(=O)c1ccc(F)c(NC(C)=O)c1  -7.74%
27. COc1ccc(C(=O)NCCCNc2ncccn2)c(OC)c1  -7.46%
28. Cc1nc(O)c2nnn(C[C@H]3CCCN3C(=O)c3cccs3)c2n1  -7.34%
29. Cc1c(CN2CCC(C(=O)O)(n3ccnc3)CC2)oc2ccccc12  -7.33%
30. Cc1cc(C)cc(CN2CCN(Cc3cc(C#N)n(C)c3)CC2=O)c1  -6.92%
31. c1ccc(CCCC2CN(Cc3ncc[nH]3)CCO2)cc1 (stereo not drawn)  -6.86%
32. CCC(NC(=O)c1ccco1)c1nc(C(F)(F)F)cs1 (stereo not drawn)  -6.77%
33. Cc1nc(CN2CCCC(NCc3csc(C(C)(C)C)n3)C2)no1 (stereo not drawn)  -6.65%
34. CC(C)NCC1OCCc2cn(C)nc21 (stereo not drawn)  -6.64%
35. CN(Cc1ccccc1)C(=O)Cn1nc(N2CCSCC2)ccc1=O  -6.57%
36. COCCN1C[C@H]2CN(C(=O)c3ccno3)CCN2C1=O  -6.26%
37. COc1cccc(C2CN(CCc3ccncc3)CCO2)c1 (stereo not drawn)  -6.16%
38. O=c1[nH]c2c(-c3ccccn3)nsc2c(=O)n1C1CCCCC1  -5.9%
39. CS(=O)(=O)NCC1(c2ccccc2Br)CC1  -5.81%
40. CN(Cc1cccnc1)CC1CCOc2ccccc2C1 (stereo not drawn)  -5.68%
41. CCc1cc(CN2CCCCC2c2ccc(F)cc2)on1 (stereo not drawn)  -5.55%
42. COc1ccc(C2(NCc3c(C)nc4c(C)cccn34)CCCC2)cc1  -5.54%
43. NC(=O)Cn1cc(NC(=O)NCCN2CCc3ccccc3C2)cn1  -5.44%
44. Cc1sc2nc(C(F)(F)F)nc(N3CCC(NS(C)(=O)=O)CC3)c2c1C  -5.38%
45. CCc1oc(C(=O)N[C@@H]2c3ccccc3C[C@@H]2O)cc1C  -5.26%
46. O=C(C1CCCN1Cc1nc(-c2ccco2)no1)N1CCSCC1 (stereo not drawn)  -5.08%
47. O=C(C1CC=CC1)N1CCC2(CC1)OCCO2  -4.94%
48. OCc1cc2ccccc2nc1NCC1CC1  -4.89%
49. Cc1nn(C)c(N(C)C)c1CNCc1ccnc(N2CCCC2)c1  -4.33%
50. CCSCCC(C)N(C)C(=O)c1ccc2nncn2c1 (stereo not drawn)  -4.21%
51. N#Cc1cccc(N2CC3(CCN(C(=O)NC4CC4)C3)CC2=O)c1 (stereo not drawn)  -4.14%
52. NC(=O)CN1CCCN(C(=O)c2ccn(-c3ccccc3)n2)CC1  -3.77%
53. CN(C)C(=O)CN(C)C(=O)c1cccn1CCc1ccccc1  -3.57%
54. Cc1cccc(CN2C[C@@H]3CCCO[C@@H]3[C@H](NS(C)(=O)=O)C2)n1  -3.48%
55. CC(=O)N1CCN(C(=O)CCOc2ccc(C(C)C)cc2)CC1  -3.31%
56. CC(C)(C)c1ncc2c(n1)CN(C(=O)c1ccc3[nH]cnc3c1)C2  -3.17%
57. O=C(NCC1CC1)Nc1cnc2ccc(F)cc2c1O  -3.07%
58. CCOCC1c2c(ncn2C(C)C)CCN1C(=O)C1CC1 (stereo not drawn)  -3.05%
59. CCc1cnc(C)nc1NC(CC)c1cnn(C)c1 (stereo not drawn)  -2.39%
60. CC(C)(C)c1nnc(CN2CCN(S(C)(=O)=O)CC2)o1  -2.04%
61. O=C(c1cn(-c2cc(N3CCOCC3)ncn2)cn1)N1CCSCC1  -2%
62. CN(C)c1ccc(C(=O)NCCCc2ccccn2)cn1  -1.92%
63. Cc1cc(C)cc(S(=O)(=O)NCC2CNCCOC2)c1 (stereo not drawn)  -1.55%
64. O=C(NC1CCCC1)c1ccnc(C2CCNCC2)c1  -1.39%
65. CC(C)N(C)Cc1cncc2c1CCN(Cc1ccoc1)C2  -1.23%
66. O=C(CSC1CCc2ccccc2NC1=O)Nc1ccc(CCO)cc1 (stereo not drawn)  -1.18%
67. Cc1cc(CN2C[C@@H]3COC[C@]3(CNC(=O)N(C)C)C2)no1  -1.07%
68. CN1CCC(c2cccc(Cc3ccc(C(F)(F)F)cc3)n2)CC1  -0.939%
69. Cc1ccc(C)n1-c1c(C(=O)NCC(C)N(C)C)cnn1C (stereo not drawn)  -0.908%
70. COc1ccccc1CN1C[C@@H](F)[C@@H](OCc2nc3ncccc3[nH]2)C1  -0.841%
71. COc1ccc(CN2CC(O)CN(C(=O)C3CCC3)CC2=O)cc1 (stereo not drawn)  -0.603%
72. CC(C)C(=O)NCCCn1ncc2c(Cl)cccc21  -0.542%
73. C/C(=C\c1ccco1)CN(C)C(C)Cc1cc(C)ccn1 (stereo not drawn)  -0.46%
74. CC(NC(=O)NCCn1ccnc1)c1ccc2c(c1)NC(=O)CO2 (stereo not drawn)  -0.375%
75. Cc1cccc2cc(CN3CCC(O)(CN4CCCC4)CC3)c(=O)[nH]c12  -0.171%
76. NC1C=C(C(F)(F)F)NC=C1c1ccccc1 (stereo not drawn)  -0.126%
77. Cc1ccc([C@H]2CN(C(=O)CC3CCC3)C[C@@H]2N)o1  0.0304%
78. COc1ccc(C(=O)N2CCC3(CC2)c2ccccc2[C@@H](N)[C@@H]3O)cc1  0.101%
79. CCOCCN1CCC=C(C2c3nc[nH]c3CCN2C(C)=O)C1 (stereo not drawn)  0.27%
80. c1cnnc(N2CCCC(NCc3cccc4c3OCCCO4)C2)c1 (stereo not drawn)  0.746%
81. CCC(CC)NC(=O)c1cncc(Br)c1  1.03%
82. O=C(CCCC(=O)NCc1cccc(Br)c1)NCCN1CCCC1  1.2%
83. O=C(c1ccc(F)cc1Cl)N1CCn2c(nnc2C(F)(F)F)C1  1.4%
84. c1ccc2c(c1)CC(n1ccnc1-c1cc3n(n1)CCNC3)CO2 (stereo not drawn)  1.41%
85. CCN1CCN(C)C(=O)C12CCN(Cc1cccc(C)c1)CC2  2.19%
86. O=C(C1CCOCC1)N1CCO[C@H]2[C@H](OCC3CC3)CC[C@@H]21  2.42%
87. CCc1noc(CN2CCN(C(=O)OC(C)(C)C)C(C)C2)n1 (stereo not drawn)  2.89%
88. CC(C)COC(C)C(=O)N1CCC(C)CC1 (stereo not drawn)  3.43%
89. CC(CO)(NC(=O)Nc1nnc(C(F)F)s1)C1CC1 (stereo not drawn)  4%
90. CC(=O)NC[C@@H]1C=C(C)[C@H](CC(=O)NCc2cccnc2)C[C@H]1C(C)C  4.62%
91. CCn1cc(CN(C)S(=O)(=O)c2cnn(CC)c2C)c(C)n1  5.14%
92. Cc1nc(CN2CCO[C@H]3CN(C(=O)c4cccn4C)C[C@H]32)cs1  5.54%
93. Cc1cccc(OCC2CCCN(C(=O)Cn3ccccc3=O)C2)c1 (stereo not drawn)  5.85%
94. NC(=O)C1CCN(c2cncc(-n3cccn3)n2)CC1  6.36%
95. O=C(CCc1nc(-c2ccsc2)no1)NCC1CCN(C2CC2)C1 (stereo not drawn)  7.83%
96. O=C(NCCc1ccncc1)C1CCN(Cc2ccco2)CC1  10.1%
97. CCC(CNC(=O)c1ccccn1)N1CCc2ccccc2C1 (stereo not drawn)  10.5%
98. CCN(CC)S(=O)(=O)NC(=O)c1cc(C)n(-c2ccccc2)n1  10.6%
99. Cc1cc(Br)c(O)c(-c2nc(N3CCCCC3)sc2C)c1  13.1%
100. Cc1cnc(CN(C)CC2CCCN2c2cccnn2)cn1 (stereo not drawn)  14.1%
101. COc1ccccc1OCCN(C)Cc1c(C2CC2)[nH]c2ncccc12  20.9%
102. CC(C)Cc1cc(-c2cc(-c3ccc[nH]3)nc(N)c2C#N)n[nH]1  21.1%
103. COc1ncc(NS(=O)(=O)c2cccc(C)c2)c(OC)n1  21.8%
104. CCn1cnnc1CNC(=O)c1cc(Cl)ccc1O  22.7%
105. Cc1cccc(NC2CCN(C(=O)Nc3ccncc3)CC2)n1  24.2%
106. CC(=O)N(c1ccc(F)cc1)c1nc(CN2CCCC2C(C)C)cs1 (stereo not drawn)  24.7%
107. Cn1cc(C2CCCN2Cc2csc(C(C)(C)C)n2)cn1 (stereo not drawn)  25.7%
108. Cc1ccc([C@]2(O)CC[C@H]3CN(Cc4ccc(Cl)cc4Cl)C[C@H]32)nc1  27.6%
109. O=C1C[C@H]2[C@@H](CCN2C(=O)Cc2cccs2)N1Cc1ccncc1  27.8%
110. COc1ccccc1CN(Cc1nc2c(cnn2C)c(=O)[nH]1)C1CC1  28.9%
111. c1ncn(CC2CN(Cc3noc(C4CC4)n3)CCO2)n1 (stereo not drawn)  29.1%
112. CN1CCC(N(Cc2ccccc2F)C(=O)NCc2ccncc2)CC1  30.5%

Same assay, conditions: hepg2, 70.5 h, 70.5 h

With `CC1=Nc2c(c(=O)[nH]n2C(C)C)C(c2ccsc2)S1` (stereo not drawn) the Inhibition was -5.291% and -4.016%.

Reference: ChEMBL document CHEMBL3507680, “University of Dundee, Gates Library screen for HepG2 cell viability”
